What was measured:
mature, healthy horses = assay: Twenty-four week (6-month) target animal safety (TAS) study; assay type: in vivo
Description: A twenty-four week (6-month) target animal safety (TAS) study was conducted to evaluate the safety of E-4021 (EIPHISOL®) in mature, healthy horses. The study was designed with 4 treatment groups of eight horses (two geldings, two stallions and four mares) in each group. Treatment groups included a Control (Group I: Isotonic saline at a volume equivalent to the largest volume given in the 5× (Group IV); 1× (Group II: 0.125 mg E4021 per pound body weight); 3× (Group III: 0.375 mg E4021 per pound body weight; and 5× (Group IV: 0.625 mg E4021 per pound body weight). Treatment groups were dosed intravenously alternating between the left and right jugular vein once every 7 days for 25 doses.
Breeds represented in this study included Thoroughbred, Quarter Horse, Paint, Arabian, and Grade. The overall age ranged from 3 to 17 years, with a mean of 7.6±4.49 years. The majority of the horses were Thoroughbred (59.4%).
Physical Examinations and Post-Dose Observations: Post-dose observations were conducted after every treatment to detect any acute abnormalities at 10-, 30-, and 60-minute intervals. […] As all groups (including the controls) recorded this finding (Table I), it is presumed that a factor other than the test article was responsible.

[1] = Pharmacokinetic study, plasma and urine concentrations; assay type: in vivo, horses
Description: A pharmacokinetic (PK) study was conducted in six horses, namely three mares, two geldings and one stallion. The study measured plasma and urine concentrations of E-4021 (EIPHISOL®) after IV administration of 100 mg of E-4021 per horse. Plasma samples were collected pretreatment and then at 10, 20 and 30 minutes and 1, 1.5, 2, 2.5, 3, 3.5, 4, 4.5, 5, 5.5, 6, 8, 12, 17, 24 and 30 hours post administration. […] The mean area under the concentration-time curve extrapolated to infinity (AUC0-∞) was 217±83.5 hr*ng/mL. The mean volume of distribution (V) was 6.06±3.99 L/kg.
Urine was collected for assaying E-4021 during four intervals: (1) a pre-dose sample collected from approximately −24 hours through 0 hours, (2) a 0 hour to 12 hour post-dose sample, (3) a 12 hour to 24 hour post-dose sample, and, (4) a 24 hour to 36 hour-post dose sample. There was wide variability in the concentration of E-4021 measured in urine, with maximum concentration ranging from 130-974 ng/mL. […] E-4021 concentration in urine remained above the quantitation limit (3 ng/mL) for four of the six horses at 36 hours post-dose.

[2] = males in Group II (1×) and Group III (3×)
[3] = males in Group III (3×) and Group IV (5×)

sodium 1-[6-chloro-4-(3,4-methylenedioxybenzyl)-aminoquinazolin-2-yl]piperidine-4-carboxylate sesquihydrate [E-4021]
Visual findings ataxia/dragging toes or behavioral/sedation, counted once per horse per group (mature, healthy horses; 1X, PE Day 0): 6 | Visual findings ataxia/dragging toes or behavioral/sedation, counted once per horse per group (mature, healthy horses; 1X, PE Day 28): 4 | Visual findings ataxia/dragging toes or behavioral/sedation, counted once per horse per group (mature, healthy horses; 1X, PE Day 56): 2 | Visual findings ataxia/dragging toes or behavioral/sedation, counted once per horse per group (mature, healthy horses; 1X, PE Day 84): 1 | Visual findings ataxia/dragging toes or behavioral/sedation, counted once per horse per group (mature, healthy horses; 1X, PE Day 112): 1 | Visual findings ataxia/dragging toes or behavioral/sedation, counted once per horse per group (mature, healthy horses; 1X, PE Day 140): 1 | Visual findings ataxia/dragging toes or behavioral/sedation, counted once per horse per group (mature, healthy horses; 1X, PE Day 168): 1 | Physical examination findings, treatment-related (mature, healthy horses; 1× and 3×): no major abnormal physical examination findings | Visual findings ataxia/dragging toes or behavioral/sedation, counted once per horse per group (mature, healthy horses; 3X, PE Day 0): 2 | Visual findings ataxia/dragging toes or behavioral/sedation, counted once per horse per group (mature, healthy horses; 3X, PE Day 28): 0 | Visual findings ataxia/dragging toes or behavioral/sedation, counted once per horse per group (mature, healthy horses; 3X, PE Day 56): 1 | Visual findings ataxia/dragging toes or behavioral/sedation, counted once per horse per group (mature, healthy horses; 3X, PE Day 84): 0 | Visual findings ataxia/dragging toes or behavioral/sedation, counted once per horse per group (mature, healthy horses; 3X, PE Day 112): 0 | Visual findings ataxia/dragging toes or behavioral/sedation, counted once per horse per group (mature, healthy horses; 3X, PE Day 140): 1 | Visual findings ataxia/dragging toes or behavioral/sedation, counted once per horse per group (mature, healthy horses; 3X, PE Day 168): 0 | Visual findings ataxia/dragging toes or behavioral/sedation, counted once per horse per group (mature, healthy horses; 5X, PE Day 0): 6 | Visual findings ataxia/dragging toes or behavioral/sedation, counted once per horse per group (mature, healthy horses; 5X, PE Day 28): 4 | Visual findings ataxia/dragging toes or behavioral/sedation, counted once per horse per group (mature, healthy horses; 5X, PE Day 56): 3 | Visual findings ataxia/dragging toes or behavioral/sedation, counted once per horse per group (mature, healthy horses; 5X, PE Day 84): 4 | Visual findings ataxia/dragging toes or behavioral/sedation, counted once per horse per group (mature, healthy horses; 5X, PE Day 112): 2 | Visual findings ataxia/dragging toes or behavioral/sedation, counted once per horse per group (mature, healthy horses; 5X, PE Day 140): 2 | Visual findings ataxia/dragging toes or behavioral/sedation, counted once per horse per group (mature, healthy horses; 5X, PE Day 168): 2 | Blood urea nitrogen (BUN) vs Group I (Control) (mature, healthy horses; Day 140 for Group II (1×) and Day 154 for Group III (3×)): significantly higher | MCH vs Group I (Control) (mature, healthy horses; Group II (1×) and Group IV (5×)): no significant differences | Direct bilirubin vs Group I (Control) (mature, healthy horses; Group II (1×), overall): significantly lower | Erythrocytes vs Group I (Control) (mature, healthy horses; Group II (1×), overall): significantly lower | Hematocrit vs Group I (Control) (mature, healthy horses; Group II (1×), overall): significantly lower | Hemoglobin vs Group I (Control) (mature, healthy horses; Group II (1×), overall): significantly lower | MCHC vs Group I (Control) (mature, healthy horses; Group II (1×), Days 14, 70, and 154): significantly higher | Leukocytes vs Group I (Control), group-by-time (mature, healthy horses; Group II (1×), Days 14 and 154): significantly lower | Glucose vs Group I (Control) (mature, healthy horses; Group II (1×), Days 28, 42, 56, 70, and 140): significantly lower | APTT vs Group I (Control) (mature, healthy horses; Group II (1×), Days 56, 140, and 168): significantly higher | Fibrinogen vs Group I (Control) (mature, healthy horses; Group III (3×), overall): significantly lower | MCHC vs Group I (Control) (mature, healthy horses; Group III (3×), Day 0): significantly lower | MCH vs Group I (Control) (mature, healthy horses; Group III (3×), Day 56): significantly higher | APTT vs Group I (Control) (mature, healthy horses; Group III (3×), Days 28, 56, 98, 140, and 168): significantly higher | Leukocytes vs Group I (Control), group-by-time (mature, healthy horses; Group III (3×), Days 84, 98, 112, 140, and 168): significantly higher | Leukocytes vs Group I (Control), group-by-time (mature, healthy horses; Group IV (5×)): no significant differences | APTT vs Group I (Control) (mature, healthy horses; Group IV (5×), Day 84): significantly lower | Blood urea nitrogen (BUN) vs Group I (Control) (mature, healthy horses; Group IV (5×), Days 28, 42, 84, and 112): significantly lower | Glucose vs Group I (Control) (mature, healthy horses; Group IV (5×), Days 28, 84, 140, and 168): significantly lower | APTT vs Group I (Control) (mature, healthy horses; Group IV (5×), Days 56, 70, and 126): significantly higher | MCHC vs Group I (Control) (mature, healthy horses; Group IV (5×), Days 98, 112, and 154): significantly higher | Physical examination findings at and immediately after dosing (mature, healthy horses; Group IV (5×), also recorded in controls, not dose related, not considered treatment related): transient locomotion (ataxia/dragging toes), or neurodepressant type effects (behavioral/sedation) | Microscopic findings at the injection site(s) (mature, healthy horses; IV jugular once every 7 days for 25 doses, attributed to minor trauma of injection procedure): minimal fibrosis of the dermis or vein, and minimal degeneration and necrosis of the underlying skeletal muscle | Urinalysis findings (mature, healthy horses; all groups): did not appear to be any indication of abnormal urinalysis findings | Bone marrow smears (mature, healthy horses; control and test-article treated horses, no dose relationship or correlation with decreased platelet counts on Day 168): low incidence of decreased megakaryocytes | Leukocytes vs Group I (Control), group-by-sex (mature, healthy horses; female horses in Group III (3×) and Group IV (5×)): significantly higher | Globulin vs Group I (Control) (mature, healthy horses; females in Group II (1×)): significantly higher | Albumin vs Group I (Control) (mature, healthy horses; females in Group II (1×) and Group III (3×)): significantly lower | Sorbitol dehydrogenase vs Group I (Control) (mature, healthy horses; females in Group II (1×) and Group IV (5×)): significantly higher | Lymphocytes/leukocytes vs control (mature, healthy horses; females, all treatment groups): no significant differences | Magnesium vs control (mature, healthy horses; females, all treatment groups): no significant difference | Neutrophils/leukocytes vs control (mature, healthy horses; females, all treatment groups): no significant differences | Macroscopic findings limited to the injection site (mature, healthy horses; in vivo): no macroscopic findings | Microscopic findings: mandibular salivary glands, related to test article (mature, healthy horses; males given 1× and 3×, limited number examined): no microscopic findings | Liver to brain weight ratio (%) compared to control males (mature, healthy horses; males given the 3× dose, p=0.033, small magnitude, no dose response): statistically higher | Mean liver to body weight ratio (%) compared to control males (mature, healthy horses; males given the 3× dose, p=0.064, small magnitude, no dose response): statistically higher | Leukocytes vs Group I (Control), group-by-sex (mature, healthy horses; males in Group II (1×)): significantly lower | Albumin vs Group I (Control) (mature, healthy horses; [2]): significantly higher | Sorbitol dehydrogenase vs Group I (Control) (mature, healthy horses; [2]): significantly higher | Globulin vs Group I (Control) (mature, healthy horses; [3]): significantly lower | Lymphocytes/leukocytes vs Group I (Control) (mature, healthy horses; [3]): significantly higher | Magnesium vs Group I (Control) (mature, healthy horses; males in Group IV (5×)): significantly lower | Neutrophils/leukocytes vs Group I (Control) (mature, healthy horses; males in Group IV (5×)): significantly lower | Testicular changes, relation to dose (mature, healthy horses; most consistent with spontaneous background findings): did not show evidence of a dose response | Microscopic findings: testes (mature, healthy horses; often with mononuclear cell infiltration and/or Leydig cell pigment accumulation, not in the single control male): Minimal seminiferous tubule degeneration | Adverse event of abdominal colic (mature, healthy horses; one horse Group II (1×) Day 51, one horse Control Day 54): did not appear to be associated with test article administration | Macroscopic observations at the end of dosing (mature, healthy horses; previous trauma, infectious diseases, degenerative/aging changes or euthanasia artifact): attributed to spontaneous background alterations | Fecal analysis findings (mature, healthy horses; two horses in Group III (3×) at Day 83, other groups normal): abnormal intestinal mucosa | Mean clearance (CL) ([1]; IV 100 mg per horse): 1.17 ± 0.690 L/h/kg | Mean volume of distribution (V) ([1]; IV 100 mg per horse): 6.06 ± 3.99 L/kg | Maximum concentration in urine ([1]; IV 100 mg per horse, range over six horses): 130 to 974 ng/mL | Concentration in urine at 36 hours post-dose ([1]; above quantitation limit for four of the six horses): > 3 ng/mL | Collection interval of maximum urine concentration ([1]; all six horses): 12-hour post-dose collection | Mean Tmax ([1]; plasma, IV 100 mg per horse): 11.7 ± 1.2 min | Mean area under the concentration-time curve extrapolated to infinity (AUC0-∞) ([1]; plasma, IV 100 mg per horse): 217 ± 83.5 ng·h/mL | Mean elimination half-life (T½) ([1]; plasma, IV 100 mg per horse): 4.42 ± 2.91 h | Mean maximum concentration (Cmax) ±SD ([1]; plasma, IV 100 mg per horse, six horses): 295 ± 118 ng/mL

Reference: US20220387433A1, “TYPE V PHOSPHODIESTERASE INHIBITOR COMPOSITIONS, METHODS OF MAKING THEM AND METHODS OF USING THEM IN PREVENTING OR TREATING ELEVATED PULMONARY VASCULAR PRESSURE OR PULMONARY HEMORRHAGES” (American Regent, Inc., priority 2019, published 2022)
